Measured values reported in PubChem BioAssay AID248 (DTP/NCI, 2004).
Where “and” joins values, the source holds several entries; their conditions need not be identical. Equal values may be shown once. Toxic doses and inconclusive results are not listed.

Tested on: L1210 leukemia ip in BDF1 mice, survival T/C
Assay: NCI In Vivo Anticancer Drug Screen. Data for tumor model L1210 Leukemia (intraperitoneal) in B6D2F1 (BDF1) mice
Details: higher = longer survival
Outline: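 In this screen, tumor-bearing mice given compound are compared to those given vehicle, and their survival values are reported as a treated-to-control quotient.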

Question: What does the source list for `CC(CN1CC(=O)NC(=O)C1)N1CC(=O)NC(=O)C1` (stereo not drawn)?
Answer: T/C (endpoint: mean survival time, dose: 1.6 mg/kg/injection, schedule: Q03HX016 (oral), vehicle: steriod suspending solution): 122 % of control; T/C (endpoint: mean survival time, dose: 1.6 mg/kg/injection, schedule: Q03HX024 (ip), vehicle: steriod suspending solution): 156 % of control; T/C (endpoint: mean survival time, dose: 1.6 mg/kg/injection, schedule: Q03HX024 (oral), vehicle: steriod suspending solution): 124 % of control; T/C (endpoint: mean survival time, dose: 6.25 mg/kg/injection, schedule: Q03HX008 (ip), vehicle: steriod suspending solution): 118 % of control; T/C (endpoint: mean survival time, dose: 12.5 mg/kg/injection, schedule: Q01DX009 (oral), vehicle: steriod suspending solution): 156 % of control; T/C (endpoint: mean survival time, dose: 12.5 mg/kg/injection, schedule: Q01DX009 (sc), vehicle: steriod suspending solution): 117 % of control; T/C (endpoint: mean survival time, dose: 12.5 mg/kg/injection, schedule: Q01DX Z (ip), vehicle: steriod suspending solution): 154 % of control; T/C (endpoint: mean survival time, dose: 12.5 mg/kg/injection, schedule: Q03HX024 (oral), vehicle: steriod suspending solution): 101 % of control; T/C (endpoint: mean survival time, dose: 12.5 mg/kg/injection, schedule: Q04DX003 (ip), vehicle: steriod suspending solution): 109 % of control; T/C (endpoint: mean survival time, dose: 18.0 mg/kg/injection, schedule: Q01DX009 (ip), vehicle: saline): 151 % of control; T/C (endpoint: mean survival time, dose: 25.0 mg/kg/injection, schedule: Q03HX008 (ip), vehicle: steriod suspending solution): 155 % of control; T/C (endpoint: mean survival time, dose: 25.0 mg/kg/injection, schedule: Q04DX003 (ip), vehicle: Klucel (hydroxypropylcellulose) (HPC)): 109 % of control; T/C (endpoint: mean survival time, dose: 25.0 mg/kg/injection, schedule: Q04DX003 (ip), vehicle: steriod suspending solution): 103 % of control; T/C (endpoint: mean survival time, dose: 25.0 mg/kg/injection, schedule: Q04DX003 (iv), vehicle: water): 113 % of control and 122 % of control; T/C (endpoint: mean survival time, dose: 25.0 mg/kg/injection, schedule: Q04DX003 (oral), vehicle: steriod suspending solution): 115 % of control; T/C (endpoint: mean survival time, dose: 27.0 mg/kg/injection, schedule: Q01DX009 (ip), vehicle: saline): 155 % of control; T/C (endpoint: mean survival time, dose: 32.0 mg/kg/injection, schedule: Q04DX003 (ip), vehicle: saline with Tween-80): 104 % of control; T/C (endpoint: mean survival time, dose: 50.0 mg/kg/injection, schedule: Q01DX001 (ip), vehicle: saline): 107 % of control; T/C (endpoint: mean survival time, dose: 50.0 mg/kg/injection, schedule: Q01DX001 (ip), vehicle: steriod suspending solution): 107 % of control; T/C (endpoint: mean survival time, dose: 50.0 mg/kg/injection, schedule: Q01DX009 (oral), vehicle: steriod suspending solution): 98 % of control and 121 % of control; T/C (endpoint: mean survival time, dose: 50.0 mg/kg/injection, schedule: Q03HX024 (ip), vehicle: steriod suspending solution): 104 % of control; T/C (endpoint: mean survival time, dose: 50.0 mg/kg/injection, schedule: Q04DX003 (ip), vehicle: steriod suspending solution): 100 % of control; T/C (endpoint: mean survival time, dose: 50.0 mg/kg/injection, schedule: Q04DX003 (iv), vehicle: water): 112 % of control and 115 % of control and 122 % of control; T/C (endpoint: mean survival time, dose: 50.0 mg/kg/injection, schedule: Q06HX012 (oral), vehicle: steriod suspending solution): 101 % of control; T/C (endpoint: mean survival time, dose: 60.0 mg/kg/injection, schedule: Q01DX009 (ip), vehicle: saline with Tween-80): 156 % of control; T/C (endpoint: mean survival time, dose: 64.0 mg/kg/injection, schedule: Q04DX003 (ip), vehicle: saline with Tween-80): 124 % of control; T/C (endpoint: mean survival time, dose: 100.0 mg/kg/injection, schedule: Q01DX001 (ip), vehicle: saline): 113 % of control; T/C (endpoint: mean survival time, dose: 100.0 mg/kg/injection, schedule: Q01DX001 (oral), vehicle: steriod suspending solution): 111 % of control; T/C (endpoint: mean survival time, dose: 100.0 mg/kg/injection, schedule: Q01DX009 (oral), vehicle: steriod suspending solution): 95 % of control and 103 % of control; T/C (endpoint: mean survival time, dose: 100.0 mg/kg/injection, schedule: Q01DX Z (ip), vehicle: steriod suspending solution): 113 % of control; T/C (endpoint: mean survival time, dose: 100.0 mg/kg/injection, schedule: Q04DX003 (ip), vehicle: steriod suspending solution): 151 % of control; T/C (endpoint: mean survival time, dose: 100.0 mg/kg/injection, schedule: Q04DX003 (iv), vehicle: water): 112 % of control and 115 % of control and 119 % of control; T/C (endpoint: mean survival time, dose: 100.0 mg/kg/injection, schedule: Q08DX002 (ip), vehicle: steriod suspending solution): 151 % of control; T/C (endpoint: mean survival time, dose: 100.0 mg/kg/injection, schedule: Q08DX002 (oral), vehicle: steriod suspending solution): 122 % of control; T/C (endpoint: mean survival time, dose: 120.0 mg/kg/injection, schedule: Q01DX009 (ip), vehicle: saline with Tween-80): 118 % of control; T/C (endpoint: mean survival time, dose: 128.0 mg/kg/injection, schedule: Q01DX009 (ip), vehicle: saline with Tween-80): 112 % of control; T/C (endpoint: mean survival time, dose: 128.0 mg/kg/injection, schedule: Q04DX003 (oral), vehicle: saline with Tween-80): 155 % of control; T/C (endpoint: mean survival time, dose: 200.0 mg/kg/injection, schedule: Q01DX001 (ip), vehicle: saline): 120 % of control; T/C (endpoint: mean survival time, dose: 200.0 mg/kg/injection, schedule: Q01DX001 (oral), vehicle: steriod suspending solution): 107 % of control; T/C (endpoint: mean survival time, dose: 200.0 mg/kg/injection, schedule: Q04DX003 (oral), vehicle: steriod suspending solution): 153 % of control; T/C (endpoint: mean survival time, dose: 200.0 mg/kg/injection, schedule: Q08DX002 (oral), vehicle: steriod suspending solution): 120 % of control; T/C (endpoint: mean survival time, dose: 240.0 mg/kg/injection, schedule: Q01DX009 (ip), vehicle: saline with Tween-80): 96 % of control; T/C (endpoint: mean survival time, dose: 400.0 mg/kg/injection, schedule: Q01DX001 (oral), vehicle: steriod suspending solution): 114 % of control; T/C (endpoint: mean survival time, dose: 400.0 mg/kg/injection, schedule: Q04DX003 (oral), vehicle: steriod suspending solution): 155 % of control; T/C (endpoint: mean survival time, dose: 400.0 mg/kg/injection, schedule: Q08DX002 (ip), vehicle: steriod suspending solution): 156 % of control; T/C (endpoint: mean survival time, dose: 400.0 mg/kg/injection, schedule: Q08DX002 (oral), vehicle: steriod suspending solution): 119 % of control; T/C (endpoint: mean survival time, dose: 512.0 mg/kg/injection, schedule: Q04DX003 (ip), vehicle: saline with Tween-80): 155 % of control; T/C (endpoint: mean survival time, dose: 800.0 mg/kg/injection, schedule: Q04DX003 (ip), vehicle: Klucel (hydroxypropylcellulose) (HPC)): 154 % of control; T/C (endpoint: mean survival time, dose: 800.0 mg/kg/injection, schedule: Q04DX003 (ip), vehicle: water): 120 % of control; T/C (endpoint: mean survival time, dose: 800.0 mg/kg/injection, schedule: Q08DX002 (ip), vehicle: steriod suspending solution): 111 % of control; T/C (endpoint: mean survival time, dose: 1024.0 mg/kg/injection, schedule: Q04DX003 (oral), vehicle: saline with Tween-80): 120 % of control; T/C (endpoint: mean survival time, dose: 2048.0 mg/kg/injection, schedule: Q04DX003 (oral), vehicle: saline with Tween-80): 94 % of control; T/C (endpoint: median survival time, dose: 4.0 mg/kg/injection, schedule: Q03HX024 (ip), vehicle: Klucel (hydroxypropylcellulose) (HPC)): 153 % of control; T/C (endpoint: median survival time, dose: 8.0 mg/kg/injection, schedule: Q01DX009 (sc), vehicle: saline with Tween-80): 120 % of control; T/C (endpoint: median survival time, dose: 8.0 mg/kg/injection, schedule: Q03HX008 (ip), vehicle: saline with Tween-80): 156 % of control; T/C (endpoint: median survival time, dose: 12.5 mg/kg/injection, schedule: Q01DX009 (ip), vehicle: Klucel (hydroxypropylcellulose) (HPC)): 150 % of control; T/C (endpoint: median survival time, dose: 12.5 mg/kg/injection, schedule: Q03HX008 (ip), vehicle: Klucel (hydroxypropylcellulose) (HPC)): 150 % of control; T/C (endpoint: median survival time, dose: 16.0 mg/kg/injection, schedule: Q03HX008 (ip), vehicle: saline with Tween-80): 154 % of control; T/C (endpoint: median survival time, dose: 16.0 mg/kg/injection, schedule: Q03HX024 (ip), vehicle: saline with Tween-80): 113 % of control; T/C (endpoint: median survival time, dose: 25.0 mg/kg/injection, schedule: Q01DX009 (ip), vehicle: Klucel (hydroxypropylcellulose) (HPC)): 150 % of control; T/C (endpoint: median survival time, dose: 25.0 mg/kg/injection, schedule: Q03HX008 (ip), vehicle: Klucel (hydroxypropylcellulose) (HPC)): 151 % of control and 155 % of control; T/C (endpoint: median survival time, dose: 45.0 mg/kg/injection, schedule: Q03HX024 (ip), vehicle: Klucel (hydroxypropylcellulose) (HPC)): 155 % of control; T/C (endpoint: median survival time, dose: 50.0 mg/kg/injection, schedule: Q03HX008 (ip), vehicle: Klucel (hydroxypropylcellulose) (HPC)): 115 % of control; T/C (endpoint: median survival time, dose: 64.0 mg/kg/injection, schedule: Q01DX001 (ip), vehicle: saline with Tween-80): 105 % of control; T/C (endpoint: median survival time, dose: 64.0 mg/kg/injection, schedule: Q03HX008 (ip), vehicle: saline with Tween-80): 156 % of control; T/C (endpoint: median survival time, dose: 64.0 mg/kg/injection, schedule: Q03HX016 (ip), vehicle: saline with Tween-80): 96 % of control; T/C (endpoint: median survival time, dose: 64.0 mg/kg/injection, schedule: Q08DX002 (ip), vehicle: saline with Tween-80): 109 % of control; T/C (endpoint: median survival time, dose: 100.0 mg/kg/injection, schedule: Q01DX001 (ip), vehicle: other): 122 % of control; T/C (endpoint: median survival time, dose: 100.0 mg/kg/injection, schedule: Q01DX001 (ip), vehicle: steriod suspending solution): 122 % of control; T/C (endpoint: median survival time, dose: 100.0 mg/kg/injection, schedule: Q04DX003 (ip), vehicle: other): 122 % of control; T/C (endpoint: median survival time, dose: 108.0 mg/kg/injection, schedule: Q01DX001 (ip), vehicle: Klucel (hydroxypropylcellulose) (HPC)): 114 % of control and 120 % of control; T/C (endpoint: median survival time, dose: 128.0 mg/kg/injection, schedule: Q01DX001 (ip), vehicle: saline with Tween-80): 109 % of control; T/C (endpoint: median survival time, dose: 128.0 mg/kg/injection, schedule: Q01DX009 (sc), vehicle: saline with Tween-80): 107 % of control; T/C (endpoint: median survival time, dose: 128.0 mg/kg/injection, schedule: Q04DX003 (ip), vehicle: saline with Tween-80): 124 % of control; T/C (endpoint: median survival time, dose: 128.0 mg/kg/injection, schedule: Q08DX002 (ip), vehicle: saline with Tween-80): 119 % of control; T/C (endpoint: median survival time, dose: 168.0 mg/kg/injection, schedule: Q04DX003 (ip), vehicle: Klucel (hydroxypropylcellulose) (HPC)): 152 % of control and 155 % of control; T/C (endpoint: median survival time, dose: 180.0 mg/kg/injection, schedule: Q01DX001 (ip), vehicle: Klucel (hydroxypropylcellulose) (HPC)): 118 % of control and 120 % of control; T/C (endpoint: median survival time, dose: 200.0 mg/kg/injection, schedule: Q01DX001 (ip), vehicle: steriod suspending solution): 155 % of control; T/C (endpoint: median survival time, dose: 256.0 mg/kg/injection, schedule: Q01DX001 (ip), vehicle: saline with Tween-80): 113 % of control; T/C (endpoint: median survival time, dose: 400.0 mg/kg/injection, schedule: Q01DX001 (ip), vehicle: steriod suspending solution): 150 % of control and 155 % of control; T/C (endpoint: median survival time, dose: 400.0 mg/kg/injection, schedule: Q04DX003 (ip), vehicle: other): 94 % of control; T/C (endpoint: median survival time, dose: 512.0 mg/kg/injection, schedule: Q08DX002 (ip), vehicle: saline with Tween-80): 150 % of control; T/C (endpoint: median survival time, dose: 700.0 mg/kg/injection, schedule: Q04DX003 (ip), vehicle: Klucel (hydroxypropylcellulose) (HPC)): 105 % of control and 106 % of control
